In US20250019520A1, “RELIEF PRECURSORS WITH ENHANCED STABILITY” (XSYS Germany GmbH, priority 2023, published 2025):

What was measured:
[1] = Thermal melt stability: onset time of crosslinking, SIS-rubber based formulation; format: physicochemical
Experimental: The thermal melt stability was assessed by recording the melt viscosity during heating. Crosslinking of the sample was recorded as an increase in viscosity. Oscillatory rheological measurements were carried out using a Kinexus lab+rheometer (Malvern Instruments Ltd., UK) under isothermal (T=160° C.) conditions. Data was recorded using the corresponding software rSPACE version 1.76 (Malvern Instruments Ltd., UK). As measurement geometry, parallel plates with a diameter of 2.5 cm of the upper plate were chosen. As sample, a disc of a relief precursor with a diameter of 2.5 cm was used. Prior to measurement, any foils (e.g. the cover sheet) and mask layers were removed from the relief precursor. Measurements were carried out in oscillation single frequency mode. The frequency was set to 1 Hz. The gap between the parallel plates was set constant to the respective sample thickness. Data points were recorded every 15 s. The complex shear viscosity η* was monitored over time t. The “onset time of crosslinking” was identified as “the time when the difference quotient Δη*/Δt is ≥1 Pa, with Δt=15 s”. A higher onset time indicates a higher thermal stability and stability towards mechanical stress.
In this example, another trial formulation based on a SIS tri-block copolymer was used. […]

[2] = Kneading trials at 180° C., onset of crosslinking seen as increase in torque; format: physicochemical; settings: kneading at 180° C. for 60 min, SBS binder plus stabilizer
Experimental: Kneading trials were carried out using a ThermoFisher Scientifc Haake kneading device equipped with a Haake PolyLab OS RheoDrive 7 control unit, a Haake Rheomix 600 OS heating and kneading chamber with Roller Rotors R600. The torque and the sample temperature were recorded using the software PolySoft, version 2.1.0.1. For the measurement, a temperature of 180° C. was applied. The measurement was carried out for 60 min, respectively. The components were added to the kneading device as solids and were allowed to be mixed in the kneading device.
In the given sample, the amount of stabilizer was varied in the range of 0 to 1.0 parts by weight and the excess was counterbalanced by the amount of binder, respectively.
An increase in torque indicated the onset of crosslinking of the SBS-rubber due to insufficient stabilization. Without additional stabilizer, an increase in torque was observed within the first 10 min of measurement time. With BHT as stabilizer, an increase in torque was detected after 28 min of heating at 180° C. With ascorbyl palmitate, the best result was achieved, where crosslinking was observed after 50 min.

[3] = Printing plate evaluation: halftone and tonal values at 146 lpi; settings: difference of tonal value of 5% halftone at 146 lpi versus plate without additional stabilizer
Experimental: To obtain a cliché, the laser ablatable mask on the front side was imaged using a TfxX 20 laser (Flint Group Germany GmbH, Germany, rotational speed: 10 to 11 rounds/s, power: 35 W (100% intensity)). The relief precursor was exposed to UV light from the backside through the carrier foil for 20 to 40 s and from the front side through the mask layer for 15 min. During the exposure at room temperature (being around 18-25° C.), no active heating was present. As a result of the crosslinking reaction due to the exposure, the temperature of the plate rose to around 40° C. (machine type: Combi FIII (Flint Group Germany GmbH, Germany), UVA intensity […], UVA tube type: Philips TL 80 W/10-R). […]
In this example, the effect of the stabilizer on the tonal values of the resulting printing plates was assessed since conventional stabilizers can impact tonal values as they may hinder curing. […] The stabilizer impact on the tonal value was calculated as the difference of the tonal value of the 5% halftone at 146 lpi of a plate without any additional stabilizer compared to the respective tonal value of a plate comprising a stabilizer.

## CCCCCCCCCCCCCCCC(=O)OC[C@H](O)[C@H]1OC(=O)C(O)=C1O [Ascorbyl palmitate]
[1]
  Effect on the onset time of crosslinking compared with an equimolar amount of BHT: more than five times as high
[2]
  Onset time t/min: 50 min
[3]
  Stabilizer impact on tonal value: 0.8%
